Reference: patent US20190284192A1, “NITROGENOUS MACROCYCLIC COMPOUND, PREPARATION METHOD THEREFOR, PHARMACEUTICAL COMPOSITION AND APPLICATION THEREOF” (LUOXIN PHARMACEUTICAL (SHANGHAI) CO., LTD., priority 2016, published 2019)

What was measured:
[1] = Metabolic stability in mouse liver microsomes; assay type: in vitro ADME; details: mouse liver microsomes 0.5 mg/mL, NADPH, 37° C.; for CLint scaled at 1 µM: pH 7.4, read-out: MLM_CLint
How it was run: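 Compound at 1.5 μM in liver microsome dosing solution (pH 7.4 potassium phosphate, 1.0 mM EDTA) was incubated at 37 °C with NADPH and sampled at 0, 5, 15, 30, 45 min in duplicate, quenched with ACN. LC-MS/MS remaining compound fit to first-order decay; T1/2 = 0.693/K.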

SU-DHL-6 cells = assay: Inhibitory effect on SU-DHL-6 cells (CellTiter-Glo); assay type: cell-based; details: Homo sapiens; 72 hours, CellTiter-Glo; read-out: SU-DHL-6
Protocol: Determinations of the inhibition of the compounds from the above embodiments against SU-DHL-6 cells, the detailed operation steps are as followed:
The 1st Day: Seed the Cells on the Plate
1. The cells were verified that they were in good conditions by observation under microscope;
2. The cells were transferred to a centrifuge tubes, after centrifuged at 1000 rpm for 5 min, the supernatant was discarded;
3. The complete substrate (1640+10% FBS) was added, then blown and patted into single cell suspension, counted by Vi-cell cytometer, the cell suspension was adjusted to desired cell density by the complete medium.
4. The cells were inoculated into a 96 well plate, the cell number was 12000/well at 100 μL per well, 100 μL complete medium was added into the black control;
5. 37° C., 5% CO2 culture overnight.
The 2nd Day: Addition of the Drugs
1. 1000× Compound Plate Preparation
1.1. The test compound was prepared into 10 mM working solution by using DMSO. Then the STS was prepared into 2 mM working solution by using DMSO.
1.2. In the round bottom 96 wells plate, the column 2 of row A to H was added into 60 μL 10 mM test compound (or STS) working solution, columns 3-11 were added into 40 μL DMSO, 20 μL drug solution was pipetted from the column 2 to the column 3, blown and patted for a homogeneous mixture; then 20 μL solution was pipetted from the column 3 to the column 4, blown and patted for a homogeneous mixture, sequently, the drug was diluted by 3 times, 10 concentrations in total. The columns 1 and 12 were supplemented with 40 μL of DMSO.
2. Intermediate plate preparation
A sterile V-bottom 96 deep well plate was used and in each well, 495 μL FBS-free PRMI 1640 medium was added, then 5 μL of the diluted compound (or DMSO) in the 1000× compound plate was pipetted into corresponding position of the V-bottom 96 well plate, blown and patted evenly.
3.1. The cell plate was taken out from the incubator and was observed under microscope. The diluted compound or DMSO in the intermediate plate was added into the cell plate, 11 μL each well.
3.2. The cell was continued to be cultured at 37° C., 5% CO2 for 72 hours.
The 5th Day: CellTiter-Glo Detection of the Cell Activity
1. The CellTiter-Glo buffer and the reaction substrate were taken out from the refrigerator, after balanced to r.t., the buffer was poured into a brown bottle containing the substrate, the bottle was upside down to have the substrate powder sufficientaly dissolved.
2. The cell was observed under microscope; the cell plate was balanced to r.t.
3. The prepared CellTiter-Glo was added into the 96 well plate, at 100 μL/well.
4. The cell plate was placed on a shaker for 10 min, followed by standing at r.t. for 10 min.
5. A white seal film was attached to the bottom of the well plate, and the chemiluminescence signal of each well was detected by the Enspire microplate detector.
6. XLfit was used for data processing. Inhibition rate %=(d-c)/(d-b)×100, while d is the signal value of the DMSO treated group, c is the signal value of the compound treated group, b is signal value of the blank control that only containing medium and DMSO without cells. The data was fitted using the f (x)205[fit=(A+((B−A)/(1+((C/x)^∧D))))] equation in the XLfit software.

BRD4 (BD1) = molecular target: T1, BRD4 (BD1) (Homo sapiens, UniProt O60885); assay: BRD4 (BD1) bromodomain binding, HTRF; details: 2 h incubation at r.t.
T1 construct: Each member comprises two tandem bromodomains (BD1 and BD2) for recognizing the acetylated lysine residues

Row | SMILES | MLM_T1/2 [1] | CLint scaled at 1 µM [1] [mL/min/kg] | IC50 (SU-DHL-6 cells) [nM] | IC50 (BRD4 (BD1)) [nM]
1 | CCS(=O)(=O)Nc1ccc(Oc2ccc(F)cc2F)c(-c2cn(C)c(=O)c3[nH]ccc23)c1 [ABBV-075] | 81.11 min | 67.3 | 21 | 2
2 | CCS(=O)(=O)Cc1ccc2c(c1)-c1cn(C)c(=O)cc1[C@H](C)N=C2c1ccc(F)cc1 [Compound 4026, (S)-10-((ethylsulfone)methyl)-7-(4-fluorophenyl)-2,5-dimethyl-2,5-dihydro-3H-benzo[c]pyrido[3,4-e]azepin-3-ketone] | ∞ | – | 10 | 2
3 | CCS(=O)(=O)Cc1ccc2c(c1)-c1cn(C)c(=O)cc1CN=C2c1ccc(F)cc1 [Compound 4009, 7-(4-fluorophenyl)-2-methyl-10-(ethylsulfonemethyl)-2H-benzo[c]pyrido[3,4-e]azepin-3(5H)-ketone] | 588.07 min | 9.28 | 83 | 6
